From patent publication US20240270821A1, “GIP/GLP1/GCG TRI-RECEPTOR AGONISTS AND USES THEREOF” (priority 2023, published 2024) come the findings set out here.

Where two headings read alike, the source gives them in different places. Starred links: 1 amine or outer side, 2 acyl side, 3 side chain; linkers in the order of their positions; H or OH if unused. Non-standard residues stand in square brackets, D forms with d. Residues, ends and D or L forms follow the SMILES beside them. Groups on a side chain read outwards from the residue. No end group written: not given here. *: point of attachment. C18 diacid = O=C(O)CCCCCCCCCCCCCCCCC(=O)*; αMePhe(2-F) = C[C@](N)(Cc1ccccc1F)C(=O)O; γGlu = O=C(O)[C@H](CCC(=O)[*:2])N[*:1]; αMe4Pal = C[C@](N)(Cc1ccncc1)C(=O)O; αMeY = C[C@](N)(Cc1ccc(O)cc1)C(=O)O; 4Pal = N[C@@H](Cc1ccncc1)C(=O)O; αMeL = CC(C)C[C@](C)(N)C(=O)O; αMeS = C[C@](N)(CO)C(=O)O; Orn = NCCC[C@H](N)C(=O)O; AEEA = NCCOCCOCC(=O)O; Aib = CC(C)(N)C(=O)O

What all share (assay type): cell-based
In experiment [1] the target is T1, hGIPR (Homo sapiens, UniProt P48546).
T1 sequence (P48546 22-466): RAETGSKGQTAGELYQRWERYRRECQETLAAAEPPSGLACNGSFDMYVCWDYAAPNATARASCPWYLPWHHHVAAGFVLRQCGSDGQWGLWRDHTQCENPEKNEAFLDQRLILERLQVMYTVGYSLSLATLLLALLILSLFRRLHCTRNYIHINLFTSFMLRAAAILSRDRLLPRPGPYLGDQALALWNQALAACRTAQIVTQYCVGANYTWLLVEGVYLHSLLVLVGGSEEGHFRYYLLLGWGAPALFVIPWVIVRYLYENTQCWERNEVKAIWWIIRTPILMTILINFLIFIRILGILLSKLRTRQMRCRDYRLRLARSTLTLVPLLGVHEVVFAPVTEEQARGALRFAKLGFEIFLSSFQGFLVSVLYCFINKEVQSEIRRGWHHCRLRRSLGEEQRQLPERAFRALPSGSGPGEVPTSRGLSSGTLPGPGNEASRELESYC
The experiment is described as follows: Functional cAMP activation in the presence of 0.1% casein (no HSA). The note with it: read-out: Relative cAMP EC50, hGIPR.

The target of another experiment is hGcgR (Homo sapiens, UniProt P47871). The experiment is described as above. The note with it: read-out: Relative cAMP EC50, hGcgR.
Experiment [2] has as its target T2, hGLP-1R (Homo sapiens, UniProt P43220). The experiment is described as above. As to conditions: read-out: Relative cAMP EC50, hGLP-1R.
The next experiment has as its target human GcgR (Homo sapiens, UniProt P47871). Put plainly: Functional cAMP activity in the presence of 1% HSA. As to conditions: read-out: cAMP Rel EC50, hGcgR.
The target of experiment [3] is T1, hGIPR. Put plainly: Functional cAMP activity in the presence of 1% HSA. The note with it: read-out: cAMP Rel EC50, hGIPR.
The target of experiment [4] is T2, hGLP-1R. Put plainly: Functional cAMP activity in the presence of 1% HSA. The note with it: read-out: cAMP Rel EC50, hGLP-1R.
Setting [5] is: in the presence of 0.1% casein (no HSA), geometric mean.
The mark [6] stands for this setting: 0.1% casein, no HSA, geometric mean.
[7] abbreviates: in the presence of 0.1% casein (no HSA), geometric mean of relative EC50.
[8] abbreviates: HEK-293 clonal cell line, 1% HSA, geometric mean of relative EC50.
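Throughout, for Relative cAMP EC50, hGIPR: intracellular cAMP rise after 30 min at 37 °C read by HTRF against a standard curve, scaled between buffer alone (0%) and top control ligand concentration (100%), four-parameter fit.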
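Throughout, for Relative cAMP EC50, hGLP-1R: intracellular cAMP rise after 30 min at 37 °C read by HTRF, normalized between buffer only (0%) and maximal control ligand (100%), four-parameter variable-slope fit.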
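Throughout, for Relative cAMP EC50, hGcgR: intracellular cAMP rise after 30 min at 37 °C, read by HTRF against a cAMP standard curve, scaled from buffer only (0%) to maximal control ligand response (100%).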

Sequence of hGcgR (P47871 26-477): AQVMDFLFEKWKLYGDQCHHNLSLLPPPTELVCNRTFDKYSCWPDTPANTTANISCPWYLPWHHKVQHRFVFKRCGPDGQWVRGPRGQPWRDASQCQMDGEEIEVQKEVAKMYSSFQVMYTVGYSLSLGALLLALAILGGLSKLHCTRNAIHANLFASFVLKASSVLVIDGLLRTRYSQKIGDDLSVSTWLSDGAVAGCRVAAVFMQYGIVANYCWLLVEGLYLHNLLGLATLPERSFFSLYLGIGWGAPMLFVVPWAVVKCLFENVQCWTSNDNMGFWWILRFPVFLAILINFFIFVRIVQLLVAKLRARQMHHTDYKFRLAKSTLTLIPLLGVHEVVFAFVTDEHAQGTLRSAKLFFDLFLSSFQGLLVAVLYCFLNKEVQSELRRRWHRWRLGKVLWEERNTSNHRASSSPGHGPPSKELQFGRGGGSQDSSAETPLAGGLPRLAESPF
Sequence of human GcgR (P47871 26-477): as above
T2 sequence (P43220 24-463): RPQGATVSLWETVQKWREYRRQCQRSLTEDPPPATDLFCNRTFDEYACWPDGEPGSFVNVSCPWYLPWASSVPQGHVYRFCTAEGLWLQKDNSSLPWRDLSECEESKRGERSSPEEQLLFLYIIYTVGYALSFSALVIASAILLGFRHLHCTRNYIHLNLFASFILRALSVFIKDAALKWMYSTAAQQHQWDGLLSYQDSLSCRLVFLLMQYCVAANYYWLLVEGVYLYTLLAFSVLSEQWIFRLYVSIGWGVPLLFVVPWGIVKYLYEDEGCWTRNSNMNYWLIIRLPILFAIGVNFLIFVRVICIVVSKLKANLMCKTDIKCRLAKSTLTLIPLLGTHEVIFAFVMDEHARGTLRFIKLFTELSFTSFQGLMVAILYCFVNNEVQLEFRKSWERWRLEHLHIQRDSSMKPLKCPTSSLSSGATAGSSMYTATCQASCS

One may read the EC50 as the concentration at which the effect is half-maximal. On to “H-Y[Aib]QGTFTSD[4Pal]SR[αMeL]LDKK([AEEA-γGlu-C18 diacid])AQ[Aib]AFIE[αMeY]LLEGGPSSGAPPPSGS-NH2 [Example 909]”, for which the EC50 at hGIPR [1] (setting [5]) is 0.121 nM; on hGcgR (setting [5]) it was 6.82 nM; on hGLP-1R [2] (setting [5]), 1.72 nM; at human GcgR, 1740 nM; on hGIPR [3], 20.2 nM; on hGLP-1R [4], 243 nM.

As for “H-Y[Aib]QGT[αMePhe(2-F)]TSD[4Pal][αMeS]I[αMeL]LD[Orn][Orn]([AEEA-γGlu-C18 diacid])AQ[αMe4Pal]EFI[dE][αMeY]LIEGGPSSGAPPPSGSE-NH2 [Example 1212]”, the concentration giving a half-maximal response (EC50) on hGIPR [1] (setting [6]) was found to be 0.00702 nM; on hGcgR (setting [6]), 1.71 nM; on hGLP-1R [2] (setting [6]), 0.357 nM; at human GcgR it was 230 nM; on hGIPR [3], 0.614 nM; on hGLP-1R [4] it was 38.2 nM.

Take `CC[C@H](C)[C@H](NC(=O)[C@H](CC(C)C)NC(=O)[C@](C)(Cc1ccc(O)cc1)NC(=O)[C@@H](CCC(=O)O)NC(=O)[C@@H](NC(=O)[C@H](Cc1ccccc1)NC(=O)[C@H](CCCN)NC(=O)C(C)(C)NC(=O)[C@H](CCC(N)=O)NC(=O)[C@H](C)NC(=O)[C@H](CCCCNC(=O)COCCOCCNC(=O)CC[C@H](NC(=O)CCCCCCCCCCCCCCCCC(=O)O)C(=O)O)NC(=O)[C@H](CCCN)NC(=O)[C@H](CC(=O)O)NC(=O)[C@H](CC(C)C)NC(=O)[C@](C)(CC(C)C)NC(=O)[C@@H](NC(=O)[C@](C)(CO)NC(=O)[C@H](Cc1ccncc1)NC(=O)[C@H](CC(=O)O)NC(=O)[C@H](CO)NC(=O)[C@@H](NC(=O)[C@](C)(Cc1ccccc1F)NC(=O)[C@@H](NC(=O)CNC(=O)[C@H](CCC(N)=O)NC(=O)C(C)(C)NC(=O)[C@@H](N)Cc1ccc(O)cc1)[C@@H](C)O)[C@@H](C)O)[C@@H](C)CC)[C@@H](C)CC)C(=O)N[C@@H](CCC(=O)O)C(=O)NCC(=O)NCC(=O)N1CCC[C@H]1C(=O)N[C@@H](CO)C(=O)N[C@@H](CO)C(=O)NCC(=O)N[C@@H](CCC(=O)O)C(=O)N1CCC[C@H]1C(=O)N[C@@H](CCC(=O)O)C(=O)N1CCC[C@H]1C(=O)N[C@@H](CCC(=O)O)C(N)=O` [Example 461] (H-Y[Aib]QGT[αMePhe(2-F)]TSD[4Pal][αMeS]I[αMeL]LD[Orn]K([AEEA-γGlu-C18 diacid])AQ[Aib][Orn]FI[dE][αMeY]LIEGGPSSGEPEPE-NH2): the half-maximal effective concentration (EC50) on hGIPR [1] is 0.0171 nM; at hGcgR, 1.53 nM; at hGLP-1R [2], 0.194 nM; on human GcgR, 131 nM; at hGIPR [3], 2.51 nM; at hGLP-1R [4], 12 nM.

As to “H-Y[Aib]QGT[αMePhe(2-F)]TSD[4Pal]SI[αMeL]LD[Orn]K([AEEA-γGlu-C18 diacid])AQ[Aib][Orn]FIEYLIEGGPSSGEPPPSEG-NH2 [Example 489]”, the concentration for a half-maximal effect (EC50) amounted to 0.0121 nM at hGIPR [1]; 2.31 nM on hGcgR; 0.172 nM on hGLP-1R [2]; 523 nM at human GcgR; 1.25 nM at hGIPR [3]; 11.8 nM on hGLP-1R [4].

For the compound “H-Y[Aib]QGT[αMePhe(2-F)]TSD[4Pal][αMeS]I[αMeL]LD[Orn]K([AEEA-γGlu-C18 diacid])AQ[αMe4Pal]EFI[dE][αMeY]LIEGGPSSGAPPPTGE-NH2 [Example 1142]”, the 50% effective concentration (EC50) is 0.00706 nM on hGIPR [1] (setting [5]); 1.34 nM at hGcgR (setting [5]); 0.329 nM at hGLP-1R [2] (setting [5]); 203 nM at human GcgR; 0.748 nM at hGIPR [3]; 38 nM at hGLP-1R [4].

Regarding “H-Y[Aib]Q[dA]T[αMePhe(2-F)]TSD[4Pal][αMeS]I[αMeL]LD[Orn]K([AEEA-γGlu-C18 diacid])AQ[Aib]EFI[dE][αMeY]LIEGGPSSGAPPPSGSE-NH2 [Example 1222]”, the EC50 was found to be 0.0858 nM on hGIPR [1] (setting [6]); 2.55 nM at hGcgR (setting [6]); 0.346 nM at hGLP-1R [2] (setting [6]); 470 nM on human GcgR; 12.4 nM on hGIPR [3]; 44.8 nM at hGLP-1R [4].

For “H-Y[Aib]QGTFTSDFS[Orn][αMeL]LDKK([AEEA-γGlu-C18 diacid])AQ[Aib]AFIEYLLE[dA]GHSSGAPPPSGE-NH2 [Example 207]”, the EC50 on hGIPR [1] (setting [5]) stood at 0.321 nM; at hGcgR (setting [5]) it was 4.24 nM; at hGLP-1R [2] (setting [5]), 4.36 nM; on human GcgR, 770 nM; at hGIPR [3], 15.2 nM; at hGLP-1R [4] it was 225 nM.

In the case of “H-Y[Aib]QGTFTSDFS[Orn][αMeL]LDKK([γGlu-γGlu-γGlu-C18 diacid])AQ[Aib]AFIEYLLE[Aib]GPSSGAPPPSGS-NH2 [Example 202]”, the half-maximal effective concentration (EC50) worked out at 0.0965 nM on hGIPR [1] (setting [5]); 11.4 nM on hGcgR (setting [5]); 4.79 nM at hGLP-1R [2] (setting [5]); 697 nM at human GcgR; 11.7 nM on hGIPR [3]; 376 nM on hGLP-1R [4].

Regarding “H-Y[Aib]QGTFTSD[4Pal]S[Orn][αMeL]LDKK([AEEA-γGlu-C18 diacid])AQ[Aib]AFIEYLLE[dA]GPSSGAPPPSG[4Pal]-NH2 [Example 274]”, the 50% effective concentration (EC50) was 0.296 nM on hGIPR [1] (setting [5]); 9.37 nM on hGcgR (setting [5]); 4.9 nM on hGLP-1R [2] (setting [5]); 1120 nM on human GcgR; 27.6 nM on hGIPR [3]; 560 nM on hGLP-1R [4].

For “H-Y[Aib]QGTFTSD[4Pal]SQ[αMeL]LD[Orn]K([AEEA-γGlu-C18 diacid])AQ[αMe4Pal]QFIE[αMeY]LIEGGPSSGAPPPSGSEE-NH2 [Example 1045]”, the concentration giving a half-maximal response (EC50) was found to be 0.781 nM at hGIPR [1] (setting [5]); 7.35 nM at hGcgR (setting [5]); 1.51 nM on hGLP-1R [2] (setting [5]); 1540 nM at human GcgR; 107 nM on hGIPR [3]; 276 nM on hGLP-1R [4].

For the compound “Y[Aib]QGTFTSD[4Pal]SQ[αMeL]LD[Orn]K([AEEA-γGlu-C18 diacid])AQ[αMe4Pal]QFIE[αMeY]LIE[Aib]GPSSGEPPPSGSEE-NH2 [Example 1098]”, the EC50 on hGIPR [1] (setting [5]) was 0.201 nM; at hGcgR (setting [5]) it was 6.2 nM; at hGLP-1R [2] (setting [5]), 1.22 nM; on human GcgR, 994 nM; at hGIPR [3] it was 31.2 nM; on hGLP-1R [4] it was 184 nM.

As to “H-Y[Aib]QGT[αMePhe(2-F)]TSD[4Pal]SI[αMeL]LDKK([γGlu-γGlu-C18 diacid])AQ[Aib][Orn]FIEYLEEGGPSSGEPPPSGSEE-NH2 [Example 635]”, the concentration giving a half-maximal response (EC50) worked out at 0.0405 nM on hGIPR [1] (setting [7]); 7.09 nM at hGcgR (setting [7]); 0.625 nM on hGLP-1R [2] (setting [7]); 753 nM on human GcgR (setting [8]); 2.7 nM on hGIPR [3] (setting [8]); 53.9 nM at hGLP-1R [4] (setting [8]).

For the compound “H-Y[Aib]QGTFTSD[4Pal]SQ[αMeL]LDKK([AEEA-γGlu-C18 diacid])AQ[αMe4Pal]AFIEYLIE[Aib]GPSSGAPPPSGT-NH2 [Example 834]”, the concentration for a half-maximal effect (EC50) at hGIPR [1] (setting [5]) was found to be 0.094 nM; on hGcgR (setting [5]) it was 3.36 nM; on hGLP-1R [2] (setting [5]) it was 2.64 nM; on human GcgR, 533 nM; on hGIPR [3], 15.7 nM; at hGLP-1R [4] it was 208 nM.

Regarding “H-Y[Aib]QGT[αMePhe(2-F)]TSD[4Pal][αMeS]I[αMeL]LD[Orn]K([AEEA-γGlu-C18 diacid])AQ[Aib][Orn]FI[dE]YLIEGGPSSGEPPPSGTEE-NH2 [Example 533]”, the EC50 on hGIPR [1] came out at 0.0388 nM; at hGcgR, 5.02 nM; at hGLP-1R [2], 0.334 nM; at human GcgR, 453 nM; at hGIPR [3], 3.23 nM; at hGLP-1R [4] it was 30 nM.

Take “H-Y[Aib]QGTFTSD[4Pal]S[Orn][αMeL]LD[Orn]K([γGlu-γGlu-C18 diacid])AQ[αMe4Pal]EFIEYLLAGGPSSGAPPPSGSEE-NH2 [Example 1003]”: the EC50 at hGIPR [1] (setting [5]) turned out to be 0.272 nM; at hGcgR (setting [5]) it was 5.07 nM; on hGLP-1R [2] (setting [5]) it was 42.4 nM; at human GcgR, 371 nM; on hGIPR [3], 15.9 nM; at hGLP-1R [4], 1950 nM.
